Measured values from patent US20260207824A1, “GALLIUM-LOADED HYDROGELS FOR BONE TREATMENT” (NORTHEAST OHIO MEDICAL UNIVERSITY, priority 2022, published 2026).

What was measured:
[1] = test system: murine hematopoietic stem cells (mHSCs); experiment: OC differentiation of murine hematopoietic stem cells with M-CSF and RANKL; format: cell-based, C57BL/6 mice
Protocol: All mice were housed and maintained at Northeast Ohio Medical University according to the guidelines of the Institutional Animal Care and Use Committee. Bone marrow cells were flushed from the femora, and tibiae were extracted from euthanized C57BL/6 mice (male, 6-8 weeks) as described previously. Xing L. and B.F. Boyce, Methods Mol Biol, 1130: p. 307-313(2014). The flushed cells were incubated overnight to separate hematopoietic (in supernatant) and mesenchymal (adherent) stem cells. The supernatant was then collected and seeded at the required density based on the type of well plate used (96 well plate: 2×10^5 cells/well & 24 well plate: 1.5×10^6 cells per well-day 0) in culture media supplemented with 30 ng/ml of M-CSF. […] On day-6, fresh media supplemented with M-CSF & RANKL were added to the differentiating cells. On day-7, the plates were fixed and evaluated for TRAP activity and counted for the number of TRAP-stained multinucleated osteoclasts formed similarly as mentioned above.

Cathepsin K (CTSK) = experiment: CTSK ELISA of cell media during bone resorption, RAW 264.7; format: cell-based, mouse; set-up: dose or concentration left out as unconfirmed
Protocol: Cathepsin K (CTSK) assay was conducted during bone resorption studies (as described above) as a useful tool to assess the effects of GaMH treatment on OC function. Supernatant from treated/untreated wells after the third treatment of differentiation factors was collected and spun down at 2000g for 10 minutes at 4° C. The supernatant was then assessed for its CTSK concentration using the mouse CTSK/Cathepsin K Sandwich ELISA kit as per manufacture protocol.

[2] = In-vivo toxicity of GaAcAc solution based on weight of animals; settings: 100 μL of 100 μg/mL subcutaneously 1-3×/week for 4 weeks
Protocol: Groups included in the study are: control: No injections; 1×/week: 100 μL of 100 μg/mL Ga solution injected subcutaneously in the back once per week for 4 weeks; 2×/week: 100 μL of 100 μg/mL Ga solution injected subcutaneously in the back twice per week for 4 weeks; 3×/week: 100 μL of 100 μg/mL Ga solution injected subcutaneously in the back three times per week for 4 weeks.

cFos, NFAT2, TRAF6, TRAP = experiment: Western blotting of OC differentiation markers; format: cell-based, murine; settings: vs positive control (RANKL)
Protocol: To investigate the effects on OC differentiation, Pre-OC (RAW 264.7) cells were seeded, treated, and differentiated with various treatments as described under OC differentiation. Afterward, cells were lysed with 100 μL of RIPA buffer containing protease inhibitor. The lysates were collected and centrifuged at 1500 RPM for 10 minutes and analyzed for their protein content via the BCA protein assay kit. Protein samples (20 μg) were separated via 10% SDS-page gel and transferred onto a polyvinylidene fluoride (PVDF) membrane. The membrane was blocked with a respective blocking buffer, either 5% BSA or non-fat dry milk, for an hour. After blocking, the membranes were washed with 1× TBST buffer and later probed with primary antibodies; NFAT2, TRAP, TRAF6 and cFos with GAPDH as a loading control, diluted with 2% respective blocking buffer overnight at 4° C., followed by a 1-hour incubation with secondary HRP conjugated anti-rabbit IgG secondary antibody. The blots were visualized using the Fluorchem system.

RAW 264.7 cells [3] = experiment: OC differentiation of RAW 264.7 cells with RANKL (TRAP activity, OC count, TRAP staining); format: cell-based, murine; settings: for TRAP activity: vs positive control (RANKL alone); for number of TRAP-stained OCs (OC count): vs positive control, p<0.0001
Protocol: Pre-osteoclast (RAW 264.7) cells were differentiated by treating the cells with culture media supplemented with or without different concentration of F127 hydrogel (HG) leachates and 30 ng/ml RANKL. The cells were then assessed for TRAP activity and stained. (A) TRAP activity; (B) OC count. Only cells which have 3 or more nuclei and were TRAP stained, i.e., pink color were counted. Each data point represents Mean±SD; n=4 wells. *** p<0.0001, *p<0.01 vs RANKL.
RAW 264.7 (Pre-OC) cells were seeded at a density of 1.5×10^5 cells/cm^2 (day 0) in a 24-well bottom dish of an insert plate and incubated overnight for adherence. Subsequently, (day 1), cells were treated with growth media supplemented with 30 ng/ml of RANKL (positive control) alone or RANKL (30 ng/ml) together with various treatments-GaAcAc solution, MH, or GaMH. […] After the initial treatment and RANKL supplementation, cells in all treatment groups (except untreated control) received RANKL supplementation on day 3 to induce OC formation. On day 4, mature OCs were fixed at 4% paraformaldehyde for 10 minutes at room temperature and evaluated for the extent of OC differentiation based on tartrate-resistant acid phosphatase (TRAP) activity and stained with TRAP staining solution. TRAP (pink colored) stained and multinucleated (≥3 nuclei) cells according to earlier reported methods. Abdelmagid et al., J Biol Chem, 290(33): p. 20128-46 (2015).

OCs from RAW 264.7 cells = experiment: Pit resorption assay on bovine cortical bone slices, OCs from RAW 264.7; format: cell-based, murine; settings: vs positive control
Protocol: To assess the effects of various treatments on OC function, we assessed the possible anti-resorptive effect via pit resorption assay. Briefly, bovine cortical bone slices were cleaned and sterilized as per the manufacturer's instructions and placed in a 24-well plate. The study was carried out using OC derived from either RAW 264.7 differentiation or murine hematopoietic stem cells (mHSCs).
Using OCs from RAW 264.7 cells, the detached pre-OC cells were seeded on top of the sanitized bovine cortical bone slice using 1.5×10^5 cells/cm^2 supplemented with a complete growth medium on day 0. […] Subsequent treatment with complete media containing RANKL occurred every two days for seven days. After seven days, the wells were aspirated and processed for further analysis.
To assess the osteoclastic resorptive effect of the wells with or without treatment, the bone slices were fixed with 10% formaldehyde and initially TRAP-stained, as reported. The bone slices were thoroughly cleaned with cotton swab and strained with 0.5% toluidine blue stain and incubated for three minutes at room temperature. The slices were then washed with water five times and patted dry. The pits formed on the bone slices, depicting OC function, were evaluated.

MC3T3 cells = experiment: Biocompatibility (MTT cell viability) of GaAcAc in pre-osteoblastic cells; format: cell-based; settings: GaAcAc 10-50 μg/mL, 37° C., vs untreated control
Protocol: (§1) RAW 264.7 (pre-osteoclast) and MC3T3 (pre-osteoblast) cells were cultured and maintained in DMEM & AMEM supplemented with 10% FBS and 1% PenStrep in a humidified incubator at 37° C. and 5% CO2 conditions. RAW and MC 3 T3 cells, upon 70-80% confluency, were gently detached using a cell scraper and/or 0.25% v/v trypsin/EDTA. The detached cell suspension was collected and centrifuged at 1500 RPM for 5 minutes and seeded accordingly to the requirement for each experiment.
(§2) After the stipulated time of incubation, cell viability was measured by MTT assay using untreated control cells as a reference.

RAW 264.7 cells [4] = experiment: Biocompatibility (MTT cell viability) of GaAcAc in pre-osteoclastic cells; format: cell-based, murine; settings: GaAcAc 10-50 μg/mL, 37° C., vs untreated control
Protocol: as §1, §2

[5] = test system: OC differentiation and function; settings: earlier studies; cited from earlier work
[6] = In-vivo retention by IVIS imaging with ICG marker; set-up: species or system BALB/c mice
Protocol: In-vivo retention studies were carried out in healthy BALB/c mice using indocyanine green (ICG) as the marker with monitoring via the in-vivo imaging system (IVIS) Lumina XRMS series III (PerkinElmer, USA). All animal studies were performed according to a protocol approved by the Institutional Animal Care and Use Committee of Northeast Ohio Medical University.
All treatments were administered by a single periosseous (intramuscular, bone adjacent) injection in the lower right hindlimb. The animals were observed via IVIS at a selected time point to obtain total radiant efficiency of the injection site with an excitation set at 780 nm and emission at 845 nm based on the earlier reported method. Okubo et al., International Journal of Pharmaceutics, 575: p. 118845(2020 ).

Structure (SMILES): CC(=O)/C=C(/C)[O][Ga]([O]/C(C)=C\C(C)=O)[O]/C(C)=C\C(C)=O [GaAcAc, gallium acetylacetonate]
- GaAcAc concentrations with significant inhibition of OC differentiation and OC count ([1]; dose-dependent, p<0.0001): greater than 25 μg/mL
- OC differentiation and OC counts ([1]; mHSCs): suppressed OC differentiation and OC counts
- reduction in level of CTSK (Cathepsin K (CTSK); 50 GaAcAc solution): 4 times reduction
- reduction in CTSK concentration (Cathepsin K (CTSK); GaAcAc solution (10)): 1.4 times reduction
- toxicity based on weight of animals [2]: did not show detectable toxicity
- expression levels of OC differentiation markers (cFos, NFAT2, TRAF6, TRAP; 10 μg/mL GaAcAc): slight decrease in expression levels
- expression levels of OC differentiation markers (cFos, NFAT2, TRAF6, TRAP; 50 μg/mL GaAcAc): downregulation of expression levels
- TRAP staining (representative images) (RAW 264.7 cells [3]; 10 μg/mL): decrease in TRAP-stained cells
- TRAP activity (RAW 264.7 cells [3]; 10 μg/mL): remarkable decrease in TRAP activity
- number of TRAP-stained OCs (OC count) (RAW 264.7 cells [3]; 10 μg/mL): significant reduction in the number of OCs
- TRAP staining (representative images) (RAW 264.7 cells [3]; 50 μg/mL): complete absence of multinucleated and TRAP-stained cells
- TRAP activity (RAW 264.7 cells [3]; 50 μg/mL): remarkable decrease in TRAP activity
- number of TRAP-stained OCs (OC count) (RAW 264.7 cells [3]; 50 μg/mL): significant reduction in the number of OCs
- resorption pits on bone slices (OCs from RAW 264.7 cells; 10 μg/mL GaAcAc): slightly reduced
- number of pits formed (OCs from RAW 264.7 cells; 50 μg/mL): significantly decrease the number of pits formed
- viability of pre-OB cells (MC3T3 cells): did not affect the viability
- viability of pre-OC cells (RAW 264.7 cells [4]): did not affect the viability

Structure (SMILES): O=[N+]([O-])[O-].O=[N+]([O-])[O-].O=[N+]([O-])[O-].[Ga+3] [GaN, gallium nitrate]
- OC differentiation and function [5]: effectively inhibit OC differentiation and function without affecting OBs

Structure (SMILES): CC1(C)C(/C=C/C=C/C=C/C=C2\N(CCCCS(=O)(=O)O)c3ccc4ccccc4c3C2(C)C)=[N+](CCCCS(=O)(=O)[O-])c2ccc3ccccc3c21 [ICG, Indocyanine green]
- fluorescent intensity at injection site ([6]; 8 hrs post-injection, single periosseous injection): diminished
- fluorescent intensity at injection site ([6]; 24 hrs post injection): completely disappeared
